According to US8329706B2, “Oxazolidinone derivatives” (Actelion Pharmaceuticals Ltd., priority 2009, dated 2012):

Columns and labels:
rat [1] = conditions: cited from earlier work
rat [2] = conditions: rat model; cited from earlier work
rat [3] = conditions: cited from earlier work; remark: listed apart in the source
human orexin-1 receptor = target: T1, human orexin-1 receptor (Homo sapiens, UniProt O43613); test: FLIPR intracellular calcium assay, orexin receptor antagonistic activity (OX1); type: cell-based; conditions: CHO cells expressing human orexin-1 receptor; agonist 3 nM orexin-A; normalized to on-plate reference; * geomean n = 5, *2 geomean n = 2
T1 construct: expressed in transfected cells; host or cells: CHO cells (G418 selection)
T1 sequence (O43613 1-425): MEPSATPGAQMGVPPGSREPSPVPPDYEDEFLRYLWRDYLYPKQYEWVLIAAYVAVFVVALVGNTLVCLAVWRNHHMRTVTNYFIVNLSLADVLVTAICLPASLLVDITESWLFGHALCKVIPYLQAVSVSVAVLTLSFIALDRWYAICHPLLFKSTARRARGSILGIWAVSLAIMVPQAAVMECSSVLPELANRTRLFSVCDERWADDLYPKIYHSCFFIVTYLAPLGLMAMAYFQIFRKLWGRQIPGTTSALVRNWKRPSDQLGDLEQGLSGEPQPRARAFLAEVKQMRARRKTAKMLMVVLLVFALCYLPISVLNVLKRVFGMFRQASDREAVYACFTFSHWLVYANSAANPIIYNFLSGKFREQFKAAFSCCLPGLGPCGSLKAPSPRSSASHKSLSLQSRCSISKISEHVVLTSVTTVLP
In short: (§1)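 CHO cells expressing human OX1 or OX2 receptor loaded with fluo-4 AM, then antagonist preincubated 10 min before 3 nM orexin-A. FLIPR peak calcium fluorescence compared with agonist-plus-vehicle response. IC50 normalized to an on-plate reference compound.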

human orexin-2 receptor = target: T2, human orexin-2 receptor (Homo sapiens, UniProt O43614); test: FLIPR intracellular calcium assay, orexin receptor antagonistic activity (OX2); type: cell-based; conditions: CHO cells expressing human orexin-2 receptor; agonist 3 nM orexin-A; normalized to on-plate reference; * geomean n = 5, *2 geomean n = 2
T2 construct: expressed in transfected cells; host or cells: CHO cells (G418 selection)
T2 sequence (O43614 1-444): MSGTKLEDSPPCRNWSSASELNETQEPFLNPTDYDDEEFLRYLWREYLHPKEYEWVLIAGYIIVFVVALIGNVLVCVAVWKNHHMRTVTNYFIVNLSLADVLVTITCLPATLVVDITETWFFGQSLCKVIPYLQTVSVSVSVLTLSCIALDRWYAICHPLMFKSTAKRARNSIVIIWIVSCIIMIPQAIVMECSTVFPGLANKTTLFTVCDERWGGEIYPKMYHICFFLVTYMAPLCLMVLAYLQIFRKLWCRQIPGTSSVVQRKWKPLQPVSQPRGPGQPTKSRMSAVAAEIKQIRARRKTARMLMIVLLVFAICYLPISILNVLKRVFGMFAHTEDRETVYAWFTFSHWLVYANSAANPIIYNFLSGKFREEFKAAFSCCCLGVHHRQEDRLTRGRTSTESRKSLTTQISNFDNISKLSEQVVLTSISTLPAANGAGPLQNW
In short: as §1

| SMILES | alertness (active wake and locomotion) (rat [1]) | time spent in REM and NREM sleep (rat [1]) | memory function (rat [2]) | activity in model of post-traumatic stress disorder (rat [3]) | IC50 (human orexin-1 receptor) [nM] | IC50 (human orexin-2 receptor) [nM] |
| --- | --- | --- | --- | --- | --- | --- |
| CNC(=O)[C@@H](c1ccccc1)N1CCc2cc(OC)c(OC)cc2[C@@H]1CCc1ccc(C(F)(F)F)cc1 [(2R)-2-{(1S)-6,7-dimethoxy-1-[2-(4-trifluoromethyl-phenyl)-ethyl]-3,4-dihydro-1H-isoquinolin-2-yl}-N-methyl-2-phenyl-acetamide] | decrease alertness | dose-dependently increase the time spent in both REM and NREM sleep | enhance memory function | active |  |  |
| COc1cccc(Cl)c1C1OC(C)(C)C(=O)N1Cc1ccc(Oc2ccccc2)cc1 (centres unmarked) [Example 85, 2-(2-Chloro-6-methoxy-phenyl)-5,5-dimethyl-3-(4-phenoxy-benzyl)-oxazolidin-4-one] |  |  |  |  | 204 | 37 |
| COc1cccc(C(F)(F)F)c1C1OC(C)(C)C(=O)N1Cc1ccc(Oc2ccccc2)cc1 (centres unmarked) [Example 86, 2-(2-Methoxy-6-trifluoromethyl-phenyl)-5,5-dimethyl-3-(4-phenoxy-benzyl)-oxazolidin-4-one] |  |  |  |  | 2180 | 65 |
| COc1cccc(OC)c1C1OC(C)(C)C(=O)N1Cc1ccc(-c2ccccc2)cc1 (centres unmarked) [Example 87, 3-Biphenyl-4-ylmethyl-2-(2,6-dimethoxy-phenyl)-5,5-dimethyl-oxazolidin-4-one] |  |  |  |  | 64 | 1090 |
| COc1cccc(OC)c1C1OC(C)(C)C(=O)N1Cc1ccc(SC(F)(F)F)cc1 (centres unmarked) [Example 88, 2-(2,6-Dimethoxy-phenyl)-5,5-dimethyl-3-(4-trifluoromethylsulfanyl-benzyl)-oxazolidin-4-one] |  |  |  |  | 120 | 298 |
| COc1cccc(OC)c1C1OC(C)(C)C(=O)N1Cc1ccc(Oc2ccccc2)nc1 (centres unmarked) [Example 89, 2-(2,6-Dimethoxy-phenyl)-5,5-dimethyl-3-(6-phenoxy-pyridin-3-ylmethyl)-oxazolidin-4-one] |  |  |  |  | 139 | 212 |
| COc1cccc(OC)c1C1OC(C)(C)C(=O)N1Cc1ccc(Oc2ccccc2)cn1 (centres unmarked) [Example 90, 2-(2,6-Dimethoxy-phenyl)-5,5-dimethyl-3-(5-phenoxy-pyridin-2-ylmethyl)-oxazolidin-4-one] |  |  |  |  | 413 | 236 |
| COc1cccc(OC)c1C1OC(C)(C)C(=O)N1Cc1ccc(Oc2ccccn2)cc1 (centres unmarked) [Example 91, 2-(2,6-Dimethoxy-phenyl)-5,5-dimethyl-3-[4-(pyridin-2-yloxy)-benzyl]-oxazolidin-4-one] |  |  |  |  | 110 | 443 |
| COc1cccc(OC)c1C1OC(C)(C)C(=O)N1Cc1ccc(Oc2cnccn2)cc1 (centres unmarked) [Example 92, 2-(2,6-Dimethoxy-phenyl)-5,5-dimethyl-3-[4-(pyrazin-2-yloxy)-benzyl]-oxazolidin-4-one] |  |  |  |  | 1210 | 3060 |
| COc1cccc(OC)c1C1OC(C)(C)C(=O)N1Cc1ccc(Oc2ccc(C)nn2)cc1 (centres unmarked) [Example 93, 2-(2,6-Dimethoxy-phenyl)-5,5-dimethyl-3-[4-(6-methyl-pyridazin-3-yloxy)-benzyl]-oxazolidin-4-one] |  |  |  |  | 1200 | 8330 |
| COc1cccc(OC)c1C1OC(C)(C)C(=O)N1Cc1ccc(Oc2ncccn2)cc1 (centres unmarked) [Example 95, 2-(2,6-Dimethoxy-phenyl)-5,5-dimethyl-3-[4-(pyrimidin-2-yloxy)-benzyl]-oxazolidin-4-one] |  |  |  |  | 2990 | 7260 |
| COc1cccc(OC(C)C)c1C1OC(C)(C)C(=O)N1Cc1ccc(Oc2ccccc2)cc1 (centres unmarked) [Example 96, 2-(2-Isopropoxy-6-methoxy-phenyl)-5,5-dimethyl-3-(4-phenoxy-benzyl)-oxazolidin-4-one] |  |  |  |  | 10 | 120 |
| CCOc1cccc(OC)c1C1OC(C)(C)C(=O)N1Cc1ccc(Oc2ccccc2)cc1 (centres unmarked) [Example 97, 2-(2-Ethoxy-6-methoxy-phenyl)-5,5-dimethyl-3-(4-phenoxy-benzyl)-oxazolidin-4-one] |  |  |  |  | 25 | 62 |
| COCCOc1cccc(OC)c1C1OC(C)(C)C(=O)N1Cc1ccc(Oc2ccccc2)cc1 (centres unmarked) [Example 98, 2-[2-Methoxy-6-(2-methoxy-ethoxy)-phenyl]-5,5-dimethyl-3-(4-phenoxy-benzyl)-oxazolidin-4-one] |  |  |  |  | 345 | 366 |
| COc1cccc(OCCCO)c1C1OC(C)(C)C(=O)N1Cc1ccc(Oc2ccccc2)cc1 (centres unmarked) [Example 99, 2-[2-(3-Hydroxy-propoxy)-6-methoxy-phenyl]-5,5-dimethyl-3-(4-phenoxy-benzyl)-oxazolidin-4-one] |  |  |  |  | 80 | 150 |
